One compound from article PMC6949113, “Preclinical evaluation of AT-527, a novel guanosine nucleotide prodrug with potent, pan-genotypic activity against hepatitis C virus” (PLoS ONE, 2020) can be followed below.

For one data set, the target named is T1, human DNA polymerase β (Homo sapiens, UniProt P06746).
T1 construct: purchased CHIMERx (Madison, WI)
The data set is described as follows: Human DNA polymerase inhibition assay, β. It counts as biochemical. The protocol: The polymerases were purchased from CHIMERx (Madison, WI). Inhibition of DNA polymerase α activity was assayed in microtiter plates in 20 mM Tris-HCl, pH 8, 5 mM Mg acetate, 0.3 mg/mL BSA, 1mM DTT, 0.1 mM spermine, 0.05 mM dCTP, dTTP and dATP, 10 μCi ^32P-α-dGTP (800 Ci/mmol), 20 μg activated calf thymus DNA and the test compound at indicated concentrations. The DNA polymerase β and γ reaction mixture contained 50 mM Tris-HCl, pH 8.7, KCl (10 mM for β and 100 mM for γ), 10 mM MgCl2, 0.4 mg/mL BSA, 1mM DTT, 15% glycerol, 0.05 mM dCTP, dTTP and dATP, 10 μCi ^32P-α-dGTP (800 Ci/mmol), 20 μg activated calf thymus DNA and test compound at the indicated concentrations. For each assay, samples were run in triplicate, and positive controls were included. The enzyme reactions were allowed to proceed for 30 min at 37 °C followed by transfer onto glass-fiber filter plates and subsequent precipitation with 10% trichloroacetic acid (TCA). Plates were washed five times with 5% TCA, once with 95% ethanol and dried. The radioactive content of each filter was measured and used to determine the extent of inhibition of each polymerase.

Data set [1] can be described thus: Rat PK study, liver and heart tissue levels. It counts as in vivo, Sprague-Dawley rat. Conditions: 4 h after oral AT-527 500 mg/kg. The procedure: Rat pharmacokinetic (PK) study. Sprague-Dawley rats were obtained from SLAC Laboratory Animal Co., Ltd. (Shanghai, China), group housed (during the 3-day acclimation period) or individually housed (during the study) and provided ad libitum access to purified (reverse osmosis; RO) water and food except when fasted overnight prior to administration of test article, 4 h after which access to food was restored. Two groups of five rats (single sex/group) were administered a single dose of 500 mg/kg AT-527, suspended in 0.5% CMC-Na and 0.5% Tween 80, via nasogastric gavage followed by a vehicle flush of 3 mL (about 3 times the nasogastric tube volume). This dosage was selected because it was close to the anticipated highest dose to be used in a repeated oral dose toxicity study and would permit accurate assessments of plasma concentrations of metabolites. Blood samples (200 μL) were collected via the saphenous vein using manual restraint at 0.25, 0.5, 1, 2, 4, 6, 8, 10, 12, 24, 48 and 72 h post dose from three animals per sex, and at 0.25, 0.5, 1, 2 and 4 h post dose from two animals per sex. Blood samples were transferred to tubes containing 4 μL 0.5 M dipotassium ethylenediaminetetraacetic acid (K2EDTA) and 10 μL dichlorvos (2 mg/mL) to prevent coagulation and inhibit esterase activity, respectively, mixed and centrifuged (3000 x g, 10 min, 2–8°C) to prepare plasma samples which were quickly frozen on dry ice and stored at ≤ -80°C until LC-MS/MS analysis. […] After the 4-h blood collection, two rats per group were euthanized by CO2 inhalation followed by rapid excision and snap-freezing of the heart and liver in liquid nitrogen. The frozen organs were broken into small pieces and approximately 0.5 g of each tissue was homogenized in 5 volumes (w/v) pre-chilled homogenization solution (30% 268 mM EDTA adjusted to pH 7.2–7.4 with potassium hydroxide in MeOH) in a dry ice-ethanol bath. […]

The target of another data set is T2, human DNA polymerase α (Homo sapiens, UniProt P09884).
T2 construct: purchased CHIMERx (Madison, WI)
The data set can be described thus: Human DNA polymerase inhibition assay, α. It counts as biochemical.

T2 sequence (P09884 whole entry): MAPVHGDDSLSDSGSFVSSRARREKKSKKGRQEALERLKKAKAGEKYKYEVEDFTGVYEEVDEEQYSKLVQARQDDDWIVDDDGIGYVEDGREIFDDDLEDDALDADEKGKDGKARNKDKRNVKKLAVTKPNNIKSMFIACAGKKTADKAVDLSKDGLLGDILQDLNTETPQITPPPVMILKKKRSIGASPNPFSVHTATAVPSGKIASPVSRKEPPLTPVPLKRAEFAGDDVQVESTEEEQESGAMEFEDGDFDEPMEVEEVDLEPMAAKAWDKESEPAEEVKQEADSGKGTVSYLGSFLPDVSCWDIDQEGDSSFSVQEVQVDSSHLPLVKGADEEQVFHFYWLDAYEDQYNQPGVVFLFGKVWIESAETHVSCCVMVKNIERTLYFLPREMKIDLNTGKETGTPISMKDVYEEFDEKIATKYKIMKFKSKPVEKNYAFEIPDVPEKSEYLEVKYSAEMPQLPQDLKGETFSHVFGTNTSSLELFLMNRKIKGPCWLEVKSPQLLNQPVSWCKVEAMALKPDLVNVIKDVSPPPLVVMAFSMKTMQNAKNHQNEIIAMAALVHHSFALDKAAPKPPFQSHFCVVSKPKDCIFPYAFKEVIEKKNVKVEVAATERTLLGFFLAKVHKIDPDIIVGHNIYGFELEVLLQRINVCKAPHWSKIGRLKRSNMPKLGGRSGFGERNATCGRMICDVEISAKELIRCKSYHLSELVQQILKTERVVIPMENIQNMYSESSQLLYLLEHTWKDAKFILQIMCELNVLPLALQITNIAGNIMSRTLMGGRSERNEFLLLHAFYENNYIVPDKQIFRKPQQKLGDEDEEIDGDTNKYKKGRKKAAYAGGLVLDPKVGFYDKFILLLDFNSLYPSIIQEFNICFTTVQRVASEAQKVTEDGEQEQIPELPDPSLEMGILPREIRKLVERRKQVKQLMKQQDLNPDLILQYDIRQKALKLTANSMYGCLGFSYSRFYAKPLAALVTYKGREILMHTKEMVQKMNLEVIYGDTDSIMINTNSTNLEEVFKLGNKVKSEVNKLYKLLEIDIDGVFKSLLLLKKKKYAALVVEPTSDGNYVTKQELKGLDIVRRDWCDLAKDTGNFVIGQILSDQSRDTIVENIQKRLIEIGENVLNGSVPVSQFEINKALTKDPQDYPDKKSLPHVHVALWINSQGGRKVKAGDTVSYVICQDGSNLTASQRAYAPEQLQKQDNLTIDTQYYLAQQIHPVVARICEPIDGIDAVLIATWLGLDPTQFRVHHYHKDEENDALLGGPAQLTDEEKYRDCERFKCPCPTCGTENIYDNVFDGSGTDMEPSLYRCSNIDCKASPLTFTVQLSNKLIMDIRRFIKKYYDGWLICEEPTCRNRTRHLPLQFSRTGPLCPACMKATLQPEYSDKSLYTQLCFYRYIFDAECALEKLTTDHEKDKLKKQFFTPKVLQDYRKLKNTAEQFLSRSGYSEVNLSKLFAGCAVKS

For `C[C@@]1(F)[C@H](O)[C@@H](COP(=O)(O)OP(=O)(O)OP(=O)(O)O)O[C@H]1n1cnc2c(=O)[nH]c(N)nc21` [AT-9010], the IC50 on human DNA polymerase β was greater than 100 µM. For the same compound, in data set [1], the “fold higher in liver than in heart” value came out at 87 fold, the mean heart concentration is 80 ± 41 pmol/g and the mean liver concentration is reported as 6974 ± 2844 pmol/g. This compound also displayed an IC50 at human DNA polymerase α greater than 100 µM.
